Values of other authors as cited in patent US20220387434A1, “COMBINATION OF A BTK INHIBITOR AND AN MDM2 INHIBITOR FOR CANCER TREATMENT” (QUOGUE IP HOLDINGS LLC, priority 2019, published 2022).

Tested on: lymphocytes
Settings: Ibr versus Veh (FIG. 3)

C=CC(=O)N1CCC[C@@H](n2nc(-c3ccc(Oc4ccccc4)cc3)c3c(N)ncnc32)C1 [Ibrutinib, 1-[(3R)-3-[4-amino-3-(4-phenoxyphenyl)pyrazolo[3,4-d]pyrimidin-1-yl]piperidin-1-yl]prop-2-en-1-one]
mobilization of lymphocytes into the peripheral circulation: mobilization
